# Patent publication US20040029215A1, “Process for producing rfrp” (priority 2000, published 2004)
# Ends that are not written are not given here.
# System: cAMP production
# Assay: activity of inhibiting the cAMP production (method of Example 1 of WO 00/29441)
# Type: cell-based
# Conditions: polypeptide obtained in Example 4, compared with the synthetic polypeptide of the same sequence
# Method: The activity of inhibiting the cAMP production was determined for the polypeptide of the invention obtained in Example 4 (the polypeptide having the amino acid sequence of SEQ ID NO: 7) according to the method described in Example 1 of WO 00/29441.
substance,measurement,value
"polypeptide having the amino acid sequence of SEQ ID NO: 7: polypeptide of the invention consisting of 37 amino acid residues, excised from a recombinant RFRP-1/CS23 fusion protein by S-cyanation and ammonolysis (SLNFEELKDWGPKNVIKMSTPAVNKMPHSFANLPLRF; not fully specified (C-terminus))",activity of inhibiting the cAMP production,has the activity as much as the synthetic polypeptide
